Data from patent publication US20260315763A1, “OLFACTORY DELIVERY OF THERAPEUTIC PEPTIDES” (Rocket Science Health Corp., priority 2023, published 2026).
“Also recorded” adds a separate entry of the source.

Tests used:
[1] = tested on: anterior division of the cingulate gyrus; experiment: fMRI region of interest analysis: mean ALFF in anterior division of the cingulate gyrus; format: in vivo, human (participants); settings: both olfactory delivery and spray conditions; 80 IU; baseline, 15, 60 min
Source text: (§1) Participants: Eight participants (male and female, ages 23-30) were recruited for this study from the New Brunswick area. Participants reported no history of abnormal nasal or sinus symptoms, insulin use, diabetes, metabolic disorder, or any complicating medical conditions, or contraindications for nasal cannulation, MRI or venous blood sampling. Additionally, participants reported no previous diagnosis of SARS-COV-2 with symptoms of anosmia. Study procedures were approved by Horizon Health Network's Human Research Protection Program prior to recruitment of participants.
(§2) Study Design: An open-label 4-arm crossover study design was used to understand the insulin brain effects between the focal deposition (cannula) and the standard nasal mister method. Undiluted solution of 80 IU (0.16 ml) prepared from U500 insulin was delivered to the olfactory region (condition A). Under this condition, 40 IU (0.08 ml) of human insulin was delivered directly by an ENT physician to each nostril. For condition B, undiluted solution containing 15% MucoLox (a thickening agent) and 80 IU (0.16 ml) insulin was delivered to the olfactory region. For condition C, a total of 1.6 ml insulin and sterile water mixture was prepared for Nasal spray delivery. The nasal spray bottle contained 80 IU of U500 insulin mixed with a sterile water solution. […]

inferior temporal gyrus = experiment: fMRI region of interest analysis: mean ALFF in inferior temporal gyrus; format: in vivo, human (participants); settings: both olfactory delivery and spray conditions; 80 IU; baseline, 15, 60 min
Source text: as §1, §2

[2] = tested on: prefrontal brain activity; experiment: Insulin delivery fMRI analysis: ALFF, prefrontal brain activity; format: in vivo, human (participants)
Source text: In the in-human studies below, the device was tuned to eject the fluid at a specific velocity. This velocity was chosen based on the viscosity of the fluid and the studies described in Example 1, to maximize the extent of laminar flow.
as §1
Study Design: An open-label 4-arm crossover study design was used to understand the insulin brain effects between the focal deposition (cannula) and the standard nasal mister method. Undiluted solution of 80 IU (0.16 ml) prepared from U500 insulin was delivered to the olfactory region (condition A). Under this condition, 40 IU (0.08 ml) of human insulin was delivered directly by an ENT physician to each nostril. For condition B, undiluted solution containing 15% MucoLox (a thickening agent) and 80 IU (0.16 ml) insulin was delivered to the olfactory region. For condition C, a total of 1.6 ml insulin and sterile water mixture was prepared for Nasal spray delivery. The nasal spray bottle contained 80 IU of U500 insulin mixed with a sterile water solution. The spray was delivered over 4 minutes with two puffs per nostril every minute. Condition sequences AC, CA, BC, and CB comprise the 4 arms of the study.
Participants were randomly assigned to one of two blocks. In Block 1, participants were randomly assigned by alternating sequence to one of the A arms (AC or CA). […] In Block 2, participants were randomly assigned by alternating sequence to one of the B arms (BC or CB). Block 2 participants did receive MucoLox in the cannula session. For a given participant, appointments for each condition were scheduled at a minimum of 14 days apart to ensure no carry-over effects from the previous condition.
MRI Acquisition: Magnetic resonance imaging was completed at an imaging clinic in Moncton (Moncton MRI) using standard sequences on a 3T Siemens Skyra, VD13. Anatomical T1-weighted MPRAGE images were acquired for each subject [TR=1900 ms, TE=2.99 ms, Flip Angle=9 degrees, Voxel Size=0.45×0.45×0.9 mm, Dimensions=448×512×160]. Resting state functional T2*-weighted BOLD images [TR=2600 ms, TE=30 ms, Flip Angle=90 degrees, Voxel Size=3×3×3 mm, Dimensions=80×80×45] were acquired for each subject at baseline and again 15 minutes and 60 minutes following intranasal delivery of insulin. Each resting state functional scan consisted of 180 volumes acquired over the course of 7 minutes and 48 seconds.
MRI Preprocessing: MRI data was preprocessed using fMRIPrep. Preprocessing steps of the anatomical images included correction for intensity nonuniformity, skull stripping, segmentation of gray matter, white matter, and cerebrospinal fluid (CSF) masks, and normalization to MNI template space. Preprocessing steps for the functional images included slice time correction, head motion correction (calculation of framewise displacement and 6-degrees of motion parameters and their temporal derivatives), registration to the subjects T1w image, normalization to MNI template space, and spatial smoothing (3 mm FWHM Gaussian kernel).
fMRI Denoising: Functional MRI data were denoised using a standard denoising pipeline implemented in the CONN Toolbox (v 22.a) and SPM (v 12.7). […]

[3] = tested on: prefrontal and posterior brain regions; experiment: fMRI control analysis: ALFF in spray condition across Blocks 1 and 2; format: in vivo, human (participants); settings: insulin without MucoLox, 80 IU
Source text: as §1, §2

[4] = Visualizing olfactory cleft delivery with methylene blue (nasal endoscopy); format: in vivo, human (healthy participants)
Source text: The primary goal of these studies is to visualize delivery to the olfactory cleft (first with technetium-99, and then with methylene blue). The device was tuned to eject the fluid at a specific velocity. This velocity was chosen based on the viscosity of the fluid and the studies in Example 1, to maximize the extent of laminar flow.
Visualizing Olfactory Cleft Delivery with Methylene Blue
Participants: Five healthy participants (ages 19+) with no history of sinonasal symptoms and no evidence of nasal inflammation were recruited for this study. Prior to recruitment of participants study procedures were approved by Providence Health Care research ethics board, (British Columbia, Canada) and conducted under Health Canada Investigational Testing Authorization #314993. All participants were assessed by a licensed otolaryngologist physician to confirm their eligibility. Participants completed two study visits during which a licensed otolaryngologist physician administered 0.1 mL of the visual dye tracer, methylene blue.
Study Design: During the first visit, the methylene blue was administered using the Laminar Fluid Ejection method (1.5 mm cannula; velocity=4.5 m/s). During the second visit, methylene blue was administered using a conventional nasal spray device (Pharma systems Item #10272, UPC: 063636802714). The Pharma systems spray device was used in these experiments because it was the device normally used by the compounding pharmacy for intranasal delivery. It was the device patients and clinicians were used to at this clinic.
Following delivery, the physician used a nasal endoscope to image the deposition of methylene blue to the olfactory cleft at up to five time points (1, 5, 8, 12, and 15 minutes following delivery). From each image, the physician judged whether at least 50% of the methylene blue fluid was delivered to the olfactory cleft. If <50% of the methylene blue was judged to have deposited in the olfactory cleft, imaging was stopped and that session's trial was completed.

Compound: insulin: Undiluted solution of 80 IU (0.16 ml) prepared from U500 insulin; spray: 80 IU of U500 insulin mixed with a sterile water solution
- ALFF over time, anterior division of the cingulate gyrus [1]: decreased over time; also recorded: decrease in ALFF in both the olfactory delivery and spray conditions
- ALFF over time, inferior temporal gyrus (inferior temporal gyrus): increased over time; also recorded: increase in ALFF for both conditions
- prefrontal brain activity compared to baseline ([2]; 80 IU intranasal insulin, scans after receiving insulin (15 and 60 minutes)): decreased prefrontal brain activity compared to baseline scans
- decrease in prefrontal brain activity, olfactory delivery device compared to spray mister ([2]; 80 IU, olfactory delivery device vs traditional spray mister): larger and longer-lasting decrease in prefrontal brain activity
- prefrontal deactivation, olfactory delivery device compared to spray device ([2]; Block 1 (insulin without MucoLox), 80 IU): greater and more sustained
- reduction in prefrontal brain activity, olfactory delivery compared to spray ([2]; Block 1, 80 IU, 60 minutes): even more intense in the olfactory delivery condition
- change in prefrontal brain activity compared to baseline ([2]; Block 1, both spray and olfactory delivery device, 80 IU, 15 minutes): reduction in brain activity in prefrontal regions
- change in prefrontal brain activity compared to baseline ([2]; Block 1, olfactory delivery device, 80 IU, 15 minutes, compared to insulin with MucoLox (Block 2)): this reduction is greater in the absence of MucoLox
- change in prefrontal brain activity compared to baseline ([2]; Block 2, spray mister, 80 IU, 15 minutes): small decrease of prefrontal brain activity
- change in prefrontal brain activity compared to baseline ([2]; Block 2, spray mister, 80 IU, 60 minutes): remained deactivated
- reduction in prefrontal brain activity, spray condition compared to olfactory delivery with MucoLox ([2]; Block 2, spray, 80 IU, 60 minutes): more intense in the spray condition
- duration of reduction of brain activity after delivery ([2]; delivery of insulin using the method disclosed (olfactory delivery)): at least 60 minutes
- deactivation of the prefrontal cortex, olfactory delivery device compared to spray mister ([2]; intranasal delivery of insulin, 80 IU, overall conclusion): deactivation of the prefrontal cortex to a greater degree
- deactivation of prefrontal cortex, insulin alone compared to insulin with MucoLox ([2]; olfactory delivery device, 80 IU): greater, longer lasting deactivation of prefrontal cortex
- reduction in prefrontal brain activity, Block 1 compared to Block 2 (MucoLox) ([2]; olfactory delivery device, 80 IU, 60 minutes): more intense in Block 1 participants who did not receive MucoLox
- brain activity, Block 2 compared to Block 1 participants ([3]; 15 minutes): increased brain activity in prefrontal cortex and reduced brain activity in posterior brain regions
- brain activity, Block 2 compared to Block 1 participants ([3]; 60 minutes): decreased brain activity in select prefrontal and posterior regions

Compound: CN(C)c1ccc2nc3ccc(=[N+](C)C)cc-3sc2c1 [Methylene Blue, methylene blue]
- participants with successful delivery of >50% of the methylene blue to the olfactory cleft ([4]; Laminar Fluid Ejection method, 0.1 mL): Four of the five participants
- delivery of at least 50% of the dye to the olfactory cleft ([4]; conventional nasal spray, each of the five participants): failed to deliver at least 50% of the dye to the olfactory cleft
- Olfactory Residence Time ([4]; participant 2.01, LFE Method, 0.1 mL, 1 attempt): 15 min
- Olfactory Residence Time ([4]; participant 2.01, Nasal Spray, 0.1 mL, 1 attempt): 0 min
- Olfactory Residence Time ([4]; participant 2.02, LFE Method, 0.1 mL, 2 attempts): 8 min
- Olfactory Residence Time ([4]; participant 2.02, Nasal Spray, 0.1 mL, 1 attempt): 0 min
- Olfactory Residence Time ([4]; participant 2.03, LFE Method, 0.1 mL, 1 attempt): 5 min
- Olfactory Residence Time ([4]; participant 2.03, Nasal Spray, 0.1 mL, 1 attempt): 0 min
- Olfactory Residence Time ([4]; participant 2.04, LFE Method, 0.1 mL, 5 attempts): 0 min
- Olfactory Residence Time ([4]; participant 2.04, Nasal Spray, 0.1 mL, 1 attempt): 0 min
- Olfactory Residence Time ([4]; participant 2.05, LFE Method, 0.1 mL, 1 attempt): 1 min
- Olfactory Residence Time ([4]; participant 2.05, Nasal Spray, 0.1 mL, 1 attempt): 0 min
